Source: the supplement of paper PMC10307832

What was measured:
Assay in all cases: relative viability (nuclei count vs DMSO), 5 days (fraction); higher = more cells survive
AZ628 + Decitabine = compound: CC1=C(C=C(C=C1)NC(=O)C2=CC(=CC=C2)C(C)(C)C#N)NC3=CC4=C(C=C3)N=CN(C4=O)C [AZ628] + Nc1ncn([C@H]2C[C@H](O)[C@@H](CO)O2)c(=O)n1 [Decitabine] (partner 2 µM)
Procedure, shortened: (§1)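 Medians of duplicate plates are given as relative viability. That measure is the nuclei count in treated wells divided by the count in vehicle wells. Counts were taken on 4× images of lung cancer cell lines in 1536-well plates, 5 days after pin-tool dosing the day after seeding with one drug alone or a fixed anchor-drug dose plus five library-drug doses (not always all listed) in √10 steps.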

AZ628 + Phenformin = compound: CC1=C(C=C(C=C1)NC(=O)C2=CC(=CC=C2)C(C)(C)C#N)NC3=CC4=C(C=C3)N=CN(C4=O)C [AZ628] + N=C(N)NC(=N)NCCc1ccccc1 [Phenformin] (partner 250 µM)
Procedure, shortened: as §1

QS11 + Bortezomib = compound: C1CC2=C(C1)C=C(C=C2)OC3=NC(=C4C(=N3)N(C=N4)CC5=CC=C(C=C5)C6=CC=CC=C6)N[C@@H](CC7=CC=CC=C7)CO [QS11] + CC(C)C[C@H](NC(=O)[C@H](Cc1ccccc1)NC(=O)c1cnccn1)B(O)O [Bortezomib] (partner 0.002 µM)
Procedure, shortened: as §1

QS11 + Pictilisib = compound: C1CC2=C(C1)C=C(C=C2)OC3=NC(=C4C(=N3)N(C=N4)CC5=CC=C(C=C5)C6=CC=CC=C6)N[C@@H](CC7=CC=CC=C7)CO [QS11] + CS(=O)(=O)N1CCN(Cc2cc3nc(-c4cccc5[nH]ncc45)nc(N4CCOCC4)c3s2)CC1 [Pictilisib] (partner 1 µM)
Procedure, shortened: as §1

Row | Cell Line | relative viability (AZ628 + Decitabine; first compound 0.08 µM) | relative viability (AZ628 + Decitabine; first compound 0.253 µM) | relative viability (AZ628 + Decitabine; first compound 0.8 µM) | relative viability (AZ628 + Decitabine; first compound 2.53 µM) | relative viability (AZ628 + Decitabine; first compound 8 µM) | relative viability (AZ628 + Phenformin; first compound 0.08 µM) | relative viability (AZ628 + Phenformin; first compound 0.253 µM) | relative viability (AZ628 + Phenformin; first compound 0.8 µM) | relative viability (AZ628 + Phenformin; first compound 2.53 µM) | relative viability (AZ628 + Phenformin; first compound 8 µM) | relative viability (QS11 + Bortezomib; first compound 0.08 µM) | relative viability (QS11 + Bortezomib; first compound 0.253 µM) | relative viability (QS11 + Bortezomib; first compound 0.8 µM) | relative viability (QS11 + Bortezomib; first compound 2.53 µM) | relative viability (QS11 + Bortezomib; first compound 8 µM) | relative viability (QS11 + Pictilisib; first compound 0.08 µM) | relative viability (QS11 + Pictilisib; first compound 0.253 µM) | relative viability (QS11 + Pictilisib; first compound 0.8 µM) | relative viability (QS11 + Pictilisib; first compound 2.53 µM) | relative viability (QS11 + Pictilisib; first compound 8 µM)
1 | SW 900 | 0.442 | 0.445 | 0.509 | 0.417 | 0.441 | 0.536 | 0.691 | 0.561 | 0.422 | 0.399 | – | – | – | – | – | – | – | – | – | –
2 | EBC-1 | – | – | – | – | – | – | – | – | – | – | 0.535 | 0.444 | 0.479 | 0.408 | 0.271 | 0.331 | 0.266 | 0.404 | 0.454 | 0.478
3 | HCC-44 | 0.97 | 0.999 | 1 | 0.953 | 0.947 | 0.218 | 0.0997 | 0.136 | 0.115 | 0.203 | 0.885 | 0.76 | 0.681 | 0.766 | 0.697 | 0.804 | 0.432 | 0.565 | 0.406 | 0.431
4 | NCI-H441 | 0.257 | 0.313 | 0.245 | 0.212 | 0.226 | 0.991 | 0.71 | 0.822 | 0.712 | 0.469 | 0.437 | 0.536 | 0.475 | 0.444 | 0.299 | 0.472 | 0.529 | 0.501 | 0.5 | 0.608
5 | LU99A | 0.825 | 0.669 | 0.806 | 0.447 | 0.386 | 0.808 | 0.67 | 0.694 | 0.782 | 0.551 | 0.878 | 1.37 | 1.17 | 1.11 | 0.706 | 0.343 | 0.317 | 0.357 | 0.296 | 0.307
6 | NCI-H661 | 0.601 | 0.491 | 0.445 | 0.451 | 0.482 | 0.283 | 0.266 | 0.278 | 0.292 | 0.275 | 0.718 | 0.685 | 0.685 | 0.912 | 0.919 | 0.424 | 0.397 | 0.407 | 0.376 | 0.383
7 | PC-14 | 0.255 | 0.228 | 0.168 | 0.19 | 0.166 | 0.638 | 0.438 | 0.498 | 0.599 | 0.416 | 0.7 | 0.887 | 0.979 | 0.741 | 0.731 | 0.658 | 0.639 | 0.667 | 0.569 | 0.604
8 | SK-LU-1 | 0.549 | 0.55 | 0.505 | 0.577 | 0.391 | – | 0.433 | 0.488 | 0.348 | 0.253 | 1.03 | 1.11 | 1.09 | 1.16 | 1.29 | 0.455 | 0.679 | 0.534 | 0.552 | 0.531
9 | NCI-H1299 | – | – | – | – | – | – | – | – | – | – | 1.03 | 1.06 | 0.915 | 0.969 | 0.841 | 0.725 | 0.791 | 0.648 | 0.736 | 0.567
